In one assay the target is T1, HIF-1α (Homo sapiens, UniProt Q16665).
T1 construct: endogenous in cells; host or cells: ARPE-19 (ATCC CRL-2302)
The experiment in a line: Analysis of HIF-1α protein expression (Western blot) in ARPE-19 cells under mixed hypoxic condition. It is filed as cell-based. The settings on record: concentration range at which HIF-1α expression is reduced by 50% vs untreated control. In short, it runs like this:
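ARPE-19 cells were pretreated 16 h or 2 h with compound (0.1 nM–10 µM, serum-free DMEM/F12), then held 1 h or 24 h in mixed hypoxia (1% O2 plus CoCl2). HIF-1α was quantified by Western blot against β-actin; the concentration range giving ≥50% reduction vs untreated control was reported.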
On the technique in general: Immunoblotting shows a protein as a band on a membrane.

In a further assay the test system is VEGF. The experiment in a line: Evaluation of VEGF protein secretion level (Human VEGF ELISA) in ARPE-19 cell medium under hypoxic conditions. It is filed as cell-based. As for the experimental part: ARPE-19 cells (Human retinal pigment epithelial cells, ATCC CRL-2302) were cultured in DMEM/F12 (LM002-08, Welgene) medium containing 10% fetal bovine serum (FBS, 16000-044, Gibco) in an incubator at 37°C with 5% carbon dioxide. When the cells grew sufficiently, they were cultured in experimental culture dishes for protein isolation and medium supernatant acquisition.
Cells were detached from the culture dish using TrypLE™ Express (Gibco). After centrifugation at 1000 rpm for 3 minutes, the supernatant was removed. The cells were counted and seeded into new culture dishes. Normoxic conditions were maintained by culturing the cells in a 37°C incubator with 5% carbon dioxide, and hypoxic conditions were maintained by culturing the cells in a hypoxic incubator with 1% oxygen, 5% carbon dioxide, and 94% nitrogen gas.
The expression of the downstream gene, angiogenesis inducer VEGF, is regulated by HIF-1α, a major transcription factor under hypoxic conditions, and the level of secreted VEGF protein can be quantitatively confirmed through ELISA (Enzyme Linked Immunosorbent Assay, Human VEGF Quantikine ELISA Kit, R&D systems). For this purpose, the following experiment was conducted.
The compounds of each Example were diluted to 0.1 nM, 1 nM, 3 nM, 10 nM, 30 nM, 100 nM, 300 nM, 1 µM and 10 µM in DMEM/F12 medium containing 1% fetal bovine serum, pretreated for 2 hours, and cultured for 24 hours under hypoxic conditions to obtain the cell medium supernatant. The supernatant was centrifuged at 1000 rpm for 3 minutes, and a specific amount was treated with a VEGF ELISA assay kit and the absorbance value was measured at 450 nm to quantitatively confirm the level of VEGF protein (see Table 1 below).
Based on the results of secreted VEGF protein expression levels in cell media treated with compounds diluted at concentrations ranging from 10 µM to 0.1 nM, the concentration range of the compound at which the secreted VEGF protein level was reduced by 50% or less compared to the untreated control group was derived.
For orientation: An ELISA detects its analyte on a solid surface through an enzyme-linked reagent.

Where [1] appears, read: mixed hypoxic condition (1% oxygen + CoCl2) for 1 hour, read-out: IC50 HIF-1α Hypoxia (1 hour).
Where [2] appears, read: ARPE-19 cells, pretreated 2 hours, 24 hours hypoxic conditions, secreted VEGF in medium supernatant by ELISA, concentration range reducing VEGF by 50% vs untreated control, read-out: IC50 VEGF.
[3] abbreviates: values marked * in the table, mixed hypoxic condition (1% oxygen + CoCl2) for 24 hours, read-out: IC50 HIF-1α, Hypoxia(24h).
The mark [4] stands for this setting: ARPE-19 cells, pretreated 2 hours, 24 hours hypoxic conditions, ELISA, read-out: concentration at which the secreted VEGF protein level was suppressed to less than 50%.
[5] abbreviates: Experimental Example 2 (HIF-1α Western blot), read-out: concentration at which the expression level of VEGF was suppressed to less than 50%.

Molecules are shown by their SMILES. Like-named read-outs stand apart in the source and are kept apart here. Where only a bound is given, the exact number is not on record here.

T1 sequence (Q16665 whole entry): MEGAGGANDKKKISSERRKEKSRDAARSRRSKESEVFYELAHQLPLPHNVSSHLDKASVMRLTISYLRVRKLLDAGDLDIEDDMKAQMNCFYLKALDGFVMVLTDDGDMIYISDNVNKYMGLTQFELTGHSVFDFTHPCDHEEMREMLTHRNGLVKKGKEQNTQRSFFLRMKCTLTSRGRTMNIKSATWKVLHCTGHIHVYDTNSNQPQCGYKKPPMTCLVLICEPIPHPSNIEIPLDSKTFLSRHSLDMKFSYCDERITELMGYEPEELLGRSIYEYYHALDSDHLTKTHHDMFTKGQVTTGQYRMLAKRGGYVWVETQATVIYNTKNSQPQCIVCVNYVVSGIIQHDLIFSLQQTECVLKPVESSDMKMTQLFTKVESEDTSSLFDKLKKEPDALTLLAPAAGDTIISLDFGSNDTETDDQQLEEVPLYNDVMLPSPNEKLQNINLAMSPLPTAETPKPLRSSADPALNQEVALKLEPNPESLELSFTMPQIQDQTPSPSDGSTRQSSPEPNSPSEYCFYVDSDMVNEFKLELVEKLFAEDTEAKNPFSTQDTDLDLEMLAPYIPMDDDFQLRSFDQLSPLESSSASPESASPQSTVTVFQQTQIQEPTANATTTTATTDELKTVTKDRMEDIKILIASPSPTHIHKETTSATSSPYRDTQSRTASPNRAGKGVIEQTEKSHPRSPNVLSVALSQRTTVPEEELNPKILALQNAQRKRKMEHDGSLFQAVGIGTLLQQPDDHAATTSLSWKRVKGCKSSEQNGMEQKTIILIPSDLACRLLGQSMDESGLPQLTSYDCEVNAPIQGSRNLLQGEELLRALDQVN

With `COc1ccc(Nc2cc(F)cc(CNC(=O)c3ncnc4nc(C5CCCC5)n(C)c34)c2)cc1` [Example 36, 8-Cyclopentyl-N-(3-fluoro-5-((4-methoxyphenyl)amino)benzyl)-7-methyl-7H-purine-6-carboxamide], the DC50 at HIF-1α (setting [1]) was under 100 nM. The IC50 with VEGF (setting [2]) fell in the range of 100 to 1000 nM.

Take `NC(=O)c1cccc(-n2cc(-c3cc(F)cc(CNC(=O)c4ncnc5nc(C6CCCC6)[nH]c45)c3)cn2)c1` [Example 37, N-(3-(1-(3-carbamoylphenyl)-1H-pyrazol-4-yl)-5-fluorobenzyl)-8-cyclopentyl-7H-purine-6-carboxamide]: the DC50 on HIF-1α (setting [3]) was under 100 nM. Besides, the IC50 with VEGF (setting [4]), in the assay with VEGF (setting [2]) and in the assay with VEGF (setting [5]) was under 100 nM each time.

Consider `O=C(NCc1cc(F)cc(-c2cnsc2)c1)c1ncnc2nc(C3CCCC3)[nH]c12` [Example 38, 8-Cyclopentyl-N-(3-fluoro-5-(isothiazol-4-yl)benzyl)-7H-purine-6-carboxamide], for which, at HIF-1α (setting [1]), the DC50 is under 100 nM. The IC50 in the assay with VEGF (setting [2]) was in the range of 100 to 1000 nM.

Take `O=C(NCc1cc(F)cc(-c2ccco2)c1)c1ncnc2nc(C3CCCC3)[nH]c12` [Example 39, 8-Cyclopentyl-N-(3-fluoro-5-(furan-2-yl)benzyl)-7H-purine-6-carboxamide]: at HIF-1α (setting [1]), the DC50 fell in the range of 100 to 1000 nM. In addition, the IC50 in the assay on VEGF (setting [2]) lay within 100 to 1000 nM.

In the case of `O=C(NCc1cc(F)cc(-c2ccsc2)c1)c1ncnc2nc(C3CCCC3)[nH]c12` [Example 40, 8-Cyclopentyl-N-(3-fluoro-5-(thiophen-3-yl)benzyl)-7H-purine-6-carboxamide], the DC50 at HIF-1α (setting [3]) was under 100 nM. In addition, the IC50 in the assay with VEGF (setting [2]) lay within 100 to 1000 nM.

For the molecule `O=C(NCc1cc(F)cc(Nc2ccc(C(F)(F)F)cc2)c1)c1ncnc2nc(C3CCCC3)[nH]c12` [Example 41, 8-Cyclopentyl-N-(3-fluoro-5-((4-(trifluoromethyl)phenyl)amino)benzyl)-7H-purine-6-carboxamide], the DC50 at HIF-1α (setting [1]) is under 100 nM. Further, the IC50 in the assay on VEGF (setting [2]) is 100 to 1000 nM.

Regarding `Cc1cc(-n2cc(-c3cc(F)cc(CNC(=O)c4ncnc5nc(C6CCCC6)[nH]c45)c3)cn2)ccn1` [Example 42, 8-Cyclopentyl-N-(3-fluoro-5-(1-(2-methylpyridin-4-yl)-1H-pyrazol-4-yl)benzyl)-7H-purine-6-carboxamide], the DC50 on HIF-1α (setting [3]) was under 100 nM. Further, the IC50 in the assay on VEGF (setting [4]), in the assay with VEGF (setting [2]) and in the assay with VEGF (setting [5]) was under 100 nM each time.

With `COc1ccc(-n2cc(-c3cc(F)cc(CNC(=O)c4ncnc5nc(C6CCCC6)[nH]c45)c3)cn2)cn1` [Example 43, 8-Cyclopentyl-N-(3-fluoro-5-(1-(6-methoxypyridin-3-yl)-1H-pyrazol-4-yl)benzyl)-7H-purine-6-carboxamide], the DC50 at HIF-1α (setting [1]) is under 100 nM. For the same molecule, the IC50 in the assay with VEGF (setting [2]) lay within 100 to 1000 nM.

With `O=C(NCc1cc(F)cc(-c2cnn(-c3ccc(C(F)(F)F)nc3)c2)c1)c1ncnc2nc(C3CCCC3)[nH]c12` [Example 44, 8-Cyclopentyl-N-(3-fluoro-5-(1-(6-(trifluoromethyl)pyridin-3-yl)-1H-pyrazol-4-yl)benzyl)-7H-purine-6-carboxamide], the DC50 on HIF-1α (setting [1]) was under 100 nM. Besides, the IC50 with VEGF (setting [2]) lay in the range of 100 to 1000 nM.

Consider `CS(=O)(=O)c1cccc(-n2cc(-c3cc(F)cc(CNC(=O)c4ncnc5nc(C6CCCC6)[nH]c45)c3)cn2)c1` [Example 45, 8-Cyclopentyl-N-(3-fluoro-5-(1-(3-(methylsulfonyl)phenyl)-1H-pyrazol-4-yl)benzyl)-7H-purine-6-carboxamide], for which, at HIF-1α (setting [3]), the DC50 is under 100 nM. Besides, the IC50 in the assay on VEGF (setting [4]), with VEGF (setting [2]) and with VEGF (setting [5]) was under 100 nM throughout.

As for `O=C(NCc1cc(F)cc(-c2cnn(-c3cccc(F)c3)c2)c1)c1ncnc2nc(C3CCCC3)[nH]c12` [Example 46, 8-Cyclopentyl-N-(3-fluoro-5-(1-(3-fluorophenyl)-1H-pyrazol-4-yl)benzyl)-7H-purine-6-carboxamide], the DC50 on HIF-1α (setting [3]) was under 100 nM. Also, the IC50 with VEGF (setting [2]) is 100 to 1000 nM.

`O=C(NCc1cc(F)cc(-c2cnn(-c3ccc(F)nc3)c2)c1)c1ncnc2nc(C3CCCC3)[nH]c12` [Example 47, 8-Cyclopentyl-N-(3-fluoro-5-(1-(6-fluoropyridin-3-yl)-1H-pyrazol-4-yl)benzyl)-7H-purine-6-carboxamide]: the DC50 on HIF-1α (setting [3]) is under 100 nM. Further, the IC50 with VEGF (setting [4]), with VEGF (setting [2]) and in the assay on VEGF (setting [5]) was under 100 nM each time.

As for `O=C(NCc1cc(F)cc(-c2cnn(-c3ccc(I)cn3)c2)c1)c1ncnc2nc(C3CCCC3)[nH]c12` [Example 48, 8-Cyclopentyl-N-(3-fluoro-5-(1-(5-iodopyridin-2-yl)-1H-pyrazol-4-yl)benzyl)-7H-purine-6-carboxamide], the DC50 on HIF-1α (setting [1]) was under 100 nM. Besides, in the assay on VEGF (setting [2]), the IC50 lay within 1000 to 10000 nM.

With `O=C(O)c1cccc(-n2cc(-c3cc(F)cc(CNC(=O)c4ncnc5nc(C6CCCC6)[nH]c45)c3)cn2)c1` [Example 49, 3-(4-(3-((8-Cyclopentyl-7H-purine-6-carboxamido)methyl)-5-fluorophenyl)-1H-pyrazol-1-yl)benzoic acid], at HIF-1α (setting [1]), the DC50 was under 100 nM. The IC50 in the assay with VEGF (setting [2]) lay within 1000 to 10000 nM.

In the case of `N#Cc1ccc(-n2cc(-c3cc(F)cc(CNC(=O)c4ncnc5nc(C6CCCC6)[nH]c45)c3)cn2)cc1` [Example 50, N-(3-(1-(4-cyanophenyl)-1H-pyrazol-4-yl)-5-fluorobenzyl)-8-cyclopentyl-7H-purine-6-carboxamide], the DC50 on HIF-1α (setting [3]) is under 100 nM. Also, the IC50 in the assay with VEGF (setting [4]), with VEGF (setting [2]) and in the assay on VEGF (setting [5]) was under 100 nM each time.

As to `O=C(NCc1cc(F)cc(-c2ccn(-c3ccc(F)cc3)n2)c1)c1ncnc2nc(C3CCCC3)[nH]c12` [Example 51, 8-Cyclopentyl-N-(3-fluoro-5-(1-(4-fluorophenyl)-1H-pyrazol-3-yl)benzyl)-7H-purine-6-carboxamide], the DC50 on HIF-1α (setting [1]) was under 100 nM. In addition, in the assay with VEGF (setting [2]), the IC50 is 100 to 1000 nM.

For the molecule `O=C(NCc1cc(F)cc(-c2ccn(-c3ccc(F)cc3)c2)c1)c1ncnc2nc(C3CCCC3)[nH]c12` [Example 52, 8-Cyclopentyl-N-(3-fluoro-5-(1-(4-fluorophenyl)-1H-pyrrol-3-yl)benzyl)-7H-purine-6-carboxamide], on HIF-1α (setting [1]), the DC50 was under 100 nM. In the assay with VEGF (setting [2]), the IC50 was 100 to 1000 nM.

As for `NC(=O)c1ccc(-n2cc(-c3cc(F)cc(CNC(=O)c4ncnc5nc(C6CCCC6)[nH]c45)c3)cn2)cc1` [Example 53, N-(3-(1-(4-carbamoylphenyl)-1H-pyrazol-4-yl)-5-fluorobenzyl)-8-cyclopentyl-7H-purine-6-carboxamide], the DC50 on HIF-1α (setting [3]) is under 100 nM. The IC50 with VEGF (setting [2]) lay in the range of 100 to 1000 nM.

`O=C(O)c1ccc(-n2cc(-c3cc(F)cc(CNC(=O)c4ncnc5nc(C6CCCC6)[nH]c45)c3)cn2)cc1` [Example 54, 4-(4-(3-((8-Cyclopentyl-7H-purine-6-carboxamido)methyl)-5-fluorophenyl)-1H-pyrazol-1-yl)benzoic acid]: the DC50 on HIF-1α (setting [1]) is under 100 nM. In addition, the IC50 in the assay with VEGF (setting [2]) lay within 100 to 1000 nM.

Consider `O=C(NCc1cc(-c2cnn(-c3ccc(F)cc3)c2)ccc1F)c1ncnc2nc(C3CCCC3)[nH]c12` [Example 56, 8-Cyclopentyl-N-(2-fluoro-5-(1-(4-fluorophenyl)-1H-pyrazol-4-yl)benzyl)-7H-purine-6-carboxamide], for which, on HIF-1α (setting [3]), the DC50 is under 100 nM. Moreover, the IC50 with VEGF (setting [2]) lay within 100 to 1000 nM.
